Marks after values point to notes of the source that are not given here.
Assays:
[1] = system: K14-HPV16/E2 and MMTV-PyMT lesions and tumors; assay: Fluorescent AGR peptide homing to lesions and tumors of K14-HPV16/E2 and MMTV-PyMT mice; assay type: in vivo, mouse
Method: (§1) The frozen sections were prepared for immunohistological analysis.

[2] = system: cell suspension derived from pre-malignant prostate lesions; assay: Phage binding to cell suspension derived from pre-malignant prostate lesions; assay type: cell-based, mouse; conditions: phage clones
Method: (§2) An NNK-encoded CX7C library display on T7Select415-1 phage (Novagen) was prepared as previously described (Laakkonen et al., 2002). Phage selection and validation have been described (Hoffman, 2004). A two-step procedure was designed for the selection of peptides targeting the tumor lymphatic vessels of pre-malignant prostate lesions and prostate tumor. First, the phage library was incubated with cells derived from normal prostate to subtract the phage that bind to normal prostate. Second, the anti-podoplanin magnetic beads were used to isolate lymphatic endothelial cells. 2-3 rounds of ex vivo selection and 2-3 rounds of in vivo selections were performed. For the ex vivo selections, cell suspensions were prepared from normal prostates of tumor-free littermates of TRAMP mice, pre-malignant prostates of 14- to 16-week-old TRAMP mice, and tumor tissues of 25- to 28-week-old TRAMP mice. Collagenase IA (1 mg/ml, Sigma) was used to disperse the tissues. About 1×10^7 normal prostate cells were incubated at 4° C. for 3 hrs with […] plaque forming units (pfu) of T7 phage displaying a CX7C peptide library. The samples were centrifuged at 1200 rpm for 10 min, the supernatant (the normal prostate-subtracted phage library) was recovered and then incubated overnight at 4° C. with 5×10^7 cells derived from pre-malignant prostate tissue or prostate tumor. The cells were washed to remove unbound phage, incubated with rat anti-mouse podoplanin for 45 min at 4° C., and washed three times with cold PBS containing 0.5% BSA. Podoplanin-positive cells were then isolated using M450 sheep anti-rat IgG Dynabeads (M450; Dynal, Oslo, Norway). Phage that bound to the podoplanin-positive cell population were rescued and amplified in E. coli. In vivo phage library screening was performed as described (Laakkonen et al., 2002).

[3] = system: K14-HPV16/E2 cervical dysplasia; assay: In vivo phage homing to K14-HPV16/E2 cervical dysplasia (CIN-3); set-up: species or system mouse
Method: (§3) The following cell lines were maintained in DMEM supplemented with 10% FCS: C8161 human melanoma, MDA-MB-435 human breast cancer, KRIB human osteosarcoma, and human prostate cancer cells PPC1, DU145. LNCaP human prostate cancer cell line was grown in RPMI 1640 medium with 10 mM HEPES, 1 mM sodium pyruvate and 1.5 g/L sodium bicarbonate supplemented with 10% FCS. M12 human prostate cancer cell line was cultured in RPMI 1640 with 5 μg/ml insulin-transferrin-sodium selenite (ITS), 2.5 μg/ml fungizone, 50 μg/ml gentamycin, 0.2 μM dexamethasone, 10 ng/ml epidermal growth factor (EGF), and 5% FCS (Bae et al., 1998). To produce tumors, nude BALB/c and C56BL/6 mice were subcutaneously (C8161, KRIB, and PPC1) or orthotopically ([…], PPC1, DU145, M12, and LNCaP) injected with 1×10^6 tumor cells. Transgenic mouse tumor models included TRAMP prostate cancer, MMTV-PyMT breast cancer, and K14-HPV16 cervical cancer. To initiate cervical carcinogenesis, female K14-HPV16 mice (Arbeit et al., 1994) were treated with 17β-estradiol (E2; (Arbeit et al., 1996; Giraudo et al., 2004). Briefly, one-month-old virgin female transgenic (heterozygous K14-HPV16, 1203#1) and nontransgenic (FVB/n) mice were anesthetized with isoflurane, and continuous release pellets that deliver E2 at doses of 0.05 mg over 60 days (Innovative Research of America, Sarasota, Fla., USA) were implanted subcutaneously in the dorsal back skin. Subsequent pellets were implanted at 3 and 5 months of age for a total of 6 months of hormone treatment. K14-HPV16 mice were maintained in the FVB/n background (FVB/n; The Jackson Laboratory). The mice were maintained in accordance with the University of California, San Francisco (UCSF) institutional guidelines governing the care of laboratory mice. The animal experimentation was approved by Animal Research Committees at UCSF or The Burnham Institute.
(§4) In vivo homing specificity of phage was tested as described (Hoffman, 2004). Briefly, mice bearing tumors were anesthetized and intravenously injected with 5×10^9 pfu of phage. After 7 min, the mice were perfused through the heart with PBS containing 0.5% BSA. The tumor and control organs were dissected from each mouse and the phage were rescued and tittered. For histology analysis, the mice were perfused with 4% PFA 30 min after the injection of phage. Tissues were embedded in Tissue-Tek O.C.T. and 5 μm sections were prepared for phage immunostaining.

[4] = system: K14-HPV16/E2 cervical lesions; assay: Distribution of fluorescent peptides in K14-HPV16/E2 mice with cervical lesions; assay type: in vivo, mouse; conditions: labeled peptide i.v.
Method: as §1

[5] = system: tumor derived cell suspensions (TRAMP); assay: Phage binding to TRAMP tumor derived cell suspensions; assay type: cell-based, mouse; conditions: phage clones
Method: as §2

C8161 xenografts = assay: In vivo phage homing to C8161 xenograft tumors; set-up: species or system mouse
Method: as §3, §4

PPC1 s.c. xenografts = assay: In vivo phage homing to PPC1 s.c. xenografts; set-up: species or system mouse
Method: as §3
In vivo homing specificity of phage was tested as described (Hoffman, 2004). Briefly, mice bearing tumors were anesthetized and intravenously injected with 5×10^9 pfu of phage. […]

[6] = system: PPC1 orthotopic xenografts; assay: In vivo phage homing to PPC1 orthotopic xenografts; set-up: species or system mouse; conditions: for phage homing to PPC1 orthotopic xenografts (in words): i.v. injected phage
Method: as §3, §4

KRIB xenografts = assay: In vivo phage homing to KRIB xenografts; set-up: species or system mouse
Method: as §3, §4

[7] = system: M12 orthotopic xenografts; assay: In vivo phage homing to M12 orthotopic xenografts; set-up: species or system mouse; conditions: for phage homing to M12 xenografts (in words): i.v. injected phage
Method: as §3, §4

[8] = system: MDA-MB-435 orthotopic xenografts; assay: In vivo phage homing to MDA-MB-435 orthotopic xenografts; set-up: species or system mouse
Method: as §3, §4

[9] = system: LNCaP orthotopic xenografts; assay: In vivo phage homing to LNCaP orthotopic xenografts; set-up: species or system mouse; conditions: for phage homing to LNCaP xenografts (in words): i.v. injected phage
Method: as §3, §4

K14-HPV16 skin cancer = assay: In vivo homing to K14-HPV16 skin cancer; set-up: species or system mouse
Method: as §3, §4

[10] = phage homing in vivo, K14-HPV16/E2 cervical dysplasia
[11] = phage homing in vivo, C8161 (s.c.) xenografts
[12] = phage homing in vivo, PPC1 s.c. xenografts
[13] = phage homing in vivo, PPC1 orthotopic xenografts
[14] = phage homing in vivo, KRIB xenografts
[15] = phage homing in vivo, M12 orthotopic xenografts
[16] = phage homing in vivo, MDA-MB-435 orthotopic xenografts
[17] = phage homing in vivo, LNCaP orthotopic xenografts
[18] = phage homing in vivo, K14-HPV16 skin cancer

CAGRRSAYC [homing peptide for pre-malignant TRAMP prostate lesions]
peptide binding to MMTV-PyMT dysplastic breast lesion [1]: weakly positive
peptide homing to lesions or malignant tumors in K14-HPV16/E2 and MMTV-PyMT models [1]: no detectable homing of the peptide
binding to cell suspension from pre-malignant prostate lesions (in words) [2]: bound
phage homing to K14-HPV16/E2 pre-malignant cervical lesions (in words) ([3]; i.v. injected phage): little homing of the phage
Fold over control phage [3, 10]: 5 fold
Specific Homing [3, 10]: No

CREAGRKAC [homing peptide for prostate tumor lymphatics]
fluorescent peptide in K14-HPV16/E2 cervical lesions/tumors (in words) [4]: slightly positive
binding to TRAMP tumor derived cell suspensions (in words) [5]: robust binding
phage homing to C8161 tumors (in words) (C8161 xenografts; i.v. injected phage, C8161 xenograft mice): negative for REA binding
Fold over control phage (C8161 xenografts; [11]): 5 fold
Specific Homing (C8161 xenografts; [11]): No
phage homing to subcutaneous PPC1 xenografts versus orthotopic (in words) (PPC1 s.c. xenografts; i.v. injected phage, 7 min circulation): homed less efficiently
Fold over control phage (PPC1 s.c. xenografts; [12]): 6 fold
Specific Homing (PPC1 s.c. xenografts; [12]): No
phage homing to PPC1 orthotopic xenografts (in words) ([6]; listed as REA phage): homed
phage homing to PPC1 orthotopic xenografts (in words) ([6]; listed as REA-phage): Significant phage homing
Fold over control phage [6, 13]: 25 fold
Specific Homing [6, 13]: Yes
phage homing to KRIB xenografts (in words) (KRIB xenografts; i.v. injected phage): negative for REA binding
Fold over control phage (KRIB xenografts; [14]): 7^‡ fold
Specific Homing (KRIB xenografts; [14]): Yes
phage homing to M12 xenografts (in words) ([7]; listed as REA phage): homed
phage homing to M12 xenografts (in words) ([7]; listed as REA-phage): Significant phage homing
Fold over control phage [7, 15]: 24 fold
Specific Homing [7, 15]: Yes
phage homing to MDA-MB-435 tumors (in words) ([8]; i.v. injected phage): negative for REA binding
Fold over control phage [8, 16]: 4 fold
Specific Homing [8, 16]: No
phage homing to LNCaP xenografts (in words) ([9]; listed as REA phage): homed
phage homing to LNCaP xenografts (in words) ([9]; listed as REA-phage): Significant phage homing
Fold over control phage [9, 17]: 20 fold
Specific Homing [9, 17]: Yes
homing to K14-HPV16 skin cancers (in words) (K14-HPV16 skin cancer; i.v. injection, K14-HPV16 mice): negative for REA binding
Fold over control phage (K14-HPV16 skin cancer; [18]): 4 fold
Specific Homing (K14-HPV16 skin cancer; [18]): No
